Legend:
Assay type in all cases: cell-based
Kir1.1 = target: T1, Kir1.1 (Homo sapiens, UniProt P48048); experiment: Thallium flux selectivity assay Kir1.1
T1 construct: expressed in transfected cells
T1 sequence (P48048 1-391): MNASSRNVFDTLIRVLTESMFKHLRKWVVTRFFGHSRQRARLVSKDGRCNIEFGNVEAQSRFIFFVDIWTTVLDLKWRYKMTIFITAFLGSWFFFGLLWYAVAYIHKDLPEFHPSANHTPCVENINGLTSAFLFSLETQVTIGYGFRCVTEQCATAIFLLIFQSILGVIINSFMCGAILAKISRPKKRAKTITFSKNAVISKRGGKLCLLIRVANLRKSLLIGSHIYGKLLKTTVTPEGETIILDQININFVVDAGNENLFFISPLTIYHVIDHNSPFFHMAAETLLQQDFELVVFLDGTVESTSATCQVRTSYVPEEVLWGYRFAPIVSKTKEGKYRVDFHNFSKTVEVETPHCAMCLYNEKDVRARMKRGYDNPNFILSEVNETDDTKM
Protocol: (§1) Quantitative thallium flux assays of Kir6.1/SUR2B activity were performed essentially as described previously for Kir6.2/SUR1 ([Raphemot et al., 2014]; [Kharade et al., 2019]). Stable T-Rex-HEK293-Kir6.1/SUR2B cells or transiently transfected HEK293T cells were plated in polyamine-coated, clear-bottomed, black-walled 384-well plates and were cultured (37°C/5% CO2) overnight in Dulbecco’s modified Eagle’s medium (Gibco, Carlsbad, CA, 11995-065) containing 10% FBS (2 mM Penicillin-Streptomycin). The following day, cells were washed with assay buffer (i.e., Hanks’ balanced salt solution/20 mM HEPES) and loaded for 1 hour with thallium sensor dye Brilliant Thallium (Ion Bioscience, San Marcos, TX) at room temperature. Dye-loaded cells were washed with assay buffer and transferred to a Panoptic Kinetic Imaging Plate Reader (Wavefront Bioscience, Franklin, TN). Control and test compound treatments were for 4 minutes prior to adding 0.5 mM chloride-free thallium stimulus buffer (Ion Bioscience) to initiate thallium flux. […] Selectivity assays against other Kir channels were performed essentially as described previously ([Kharade et al., 2018]; [McClenahan et al., 2022]).

Kir2.1 = target: T2, Kir2.1 (Homo sapiens, UniProt P63252); experiment: Thallium flux selectivity assay Kir2.1
T2 construct: expressed in transfected cells
T2 sequence (P63252 1-427): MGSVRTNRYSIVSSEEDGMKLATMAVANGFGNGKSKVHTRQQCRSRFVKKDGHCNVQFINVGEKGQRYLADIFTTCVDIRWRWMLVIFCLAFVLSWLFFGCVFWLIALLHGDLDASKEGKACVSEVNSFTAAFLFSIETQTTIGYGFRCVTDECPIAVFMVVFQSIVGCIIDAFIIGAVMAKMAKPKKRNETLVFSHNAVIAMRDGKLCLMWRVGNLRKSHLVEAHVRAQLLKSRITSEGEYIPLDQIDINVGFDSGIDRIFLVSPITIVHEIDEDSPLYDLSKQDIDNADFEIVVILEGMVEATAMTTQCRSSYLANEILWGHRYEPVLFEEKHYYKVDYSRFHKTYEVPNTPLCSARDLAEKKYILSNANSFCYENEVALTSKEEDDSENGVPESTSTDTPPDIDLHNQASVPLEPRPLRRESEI
Protocol: as §1

Kir2.2 = target: T3, Kir2.2 (Homo sapiens, UniProt Q14500); experiment: Thallium flux selectivity assay Kir2.2
T3 construct: expressed in transfected cells
T3 sequence (Q14500 1-433): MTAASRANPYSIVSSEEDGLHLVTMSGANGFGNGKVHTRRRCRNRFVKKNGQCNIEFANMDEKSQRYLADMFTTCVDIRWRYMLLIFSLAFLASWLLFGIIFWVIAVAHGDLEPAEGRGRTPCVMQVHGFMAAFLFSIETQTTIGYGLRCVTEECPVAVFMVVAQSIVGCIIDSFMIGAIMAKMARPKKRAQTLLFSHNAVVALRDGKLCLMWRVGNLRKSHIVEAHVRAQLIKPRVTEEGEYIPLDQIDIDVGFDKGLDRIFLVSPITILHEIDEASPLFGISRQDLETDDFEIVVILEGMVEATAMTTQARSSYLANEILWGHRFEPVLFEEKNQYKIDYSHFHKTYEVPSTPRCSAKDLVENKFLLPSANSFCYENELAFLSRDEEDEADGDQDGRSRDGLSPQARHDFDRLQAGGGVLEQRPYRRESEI
Protocol: as §1

Kir4.1 = target: T4, Kir4.1 (Homo sapiens, UniProt P78508); experiment: Thallium flux selectivity assay Kir4.1
T4 construct: expressed in transfected cells
T4 sequence (P78508 1-379): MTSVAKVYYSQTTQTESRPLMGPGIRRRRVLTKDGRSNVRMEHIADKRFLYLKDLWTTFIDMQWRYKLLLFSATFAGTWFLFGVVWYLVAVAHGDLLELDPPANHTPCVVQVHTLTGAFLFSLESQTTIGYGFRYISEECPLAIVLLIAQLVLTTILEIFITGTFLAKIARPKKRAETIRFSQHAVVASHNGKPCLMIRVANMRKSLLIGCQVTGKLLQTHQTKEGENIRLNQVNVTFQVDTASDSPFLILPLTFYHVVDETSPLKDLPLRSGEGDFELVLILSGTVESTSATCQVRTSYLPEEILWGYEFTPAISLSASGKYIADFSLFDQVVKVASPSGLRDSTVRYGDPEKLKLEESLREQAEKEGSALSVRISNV
Protocol: as §1

Kir4.1/Kir5.1 = target: T5, Kir4.1/Kir5.1 (Homo sapiens, UniProt P78508+Q9NPI9); experiment: Thallium flux selectivity assay Kir4.1/Kir5.1
T5 construct: expressed in transfected cells
T5 sequence (P78508 1-379): T4 sequence (P78508 1-379)
T5 sequence (Q9NPI9 1-418): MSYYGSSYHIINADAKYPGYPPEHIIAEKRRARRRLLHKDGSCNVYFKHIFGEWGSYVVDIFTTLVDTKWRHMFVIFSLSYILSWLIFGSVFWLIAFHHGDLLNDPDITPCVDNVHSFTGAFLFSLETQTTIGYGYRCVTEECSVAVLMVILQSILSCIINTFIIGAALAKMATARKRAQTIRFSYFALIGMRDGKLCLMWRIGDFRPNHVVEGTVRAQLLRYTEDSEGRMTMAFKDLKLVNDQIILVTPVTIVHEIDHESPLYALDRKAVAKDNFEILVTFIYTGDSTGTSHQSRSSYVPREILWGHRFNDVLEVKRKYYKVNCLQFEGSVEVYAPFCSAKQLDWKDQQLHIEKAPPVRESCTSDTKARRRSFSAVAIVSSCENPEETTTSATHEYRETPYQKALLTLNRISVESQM
Protocol: as §1

Measured: IC50

Cc1nc(-c2cccs2)sc1CNC(=O)Nc1cccs1 [VU0542270]
> 30 µM: all assays above
